Reference: patent US20200087403A1, “PHARMACEUTICAL COMPOSITIONS FOR THE TREATMENT OF THROMBOSIS IN PATIENTS SUFFERING FROM A MYELOPROLIFERATIVE NEOPLASM” (INSERM (INSTITUT NATIONAL DE LA SANTÉ ET DE LA RECHERCHE …, priority 2017, published 2020)

Columns and labels:
[1] = test system: Pdgfb-iCreERT2;JAK2^V617F/WT mice; test: Mouse model of thrombus formation (low dose TNF-alpha induced lung thrombus formation); format: in vivo; conditions: HU 200 mg/kg/day oral gavage 10 days
Excerpt: (§1) Generation and characterization of Pdgfb-iCreERT2;JAK2^V617F/WT mice. The conditional flexed JAK2 (JAK2V617F/WT) mice were generously provided by J. L Villeval and have been previously described^19. The double-heterozygous Pdgfb-iCreERT2;JAK2^V617F/WT mice were generated by crossing JAK2^V617F/WT mice with Pdgfb-iCreERT2 mice allowing tamoxifen-inducible adult expression of JAK2^V617F in endothelium. Littermate Pdgfb-iCreERT2-negative;JAK2^V617F/WT mice were used as controls. To induce Cre activity in Pdgfb-iCreERT2;JAK2^V617F/WT mice, we used oral gavage of a single dose of 8 mg of tamoxifen. Tamoxifen induction was performed in 5 weeks-old animals. Mutant mice were analysed 2-3 weeks after tamoxifen administration. Ears of adult mice were genotyped by PCR. Haematocrit, hemoglobin level, platelet, and white cells count were determined using an automated counter (scil Vet abc Plus+) on blood collected from the sublingual vein in EDTA containing tubes. […]
Histology. To quantify thrombus formation in mice, Carstair's staining was performed. […] Thrombus quantification was performed using an optical microscope and pulmonary area was quantitated to perform the following ratio: thrombi number/pulmonary area (number of thrombi/cm2). Three slides by mice were analysed by two independent observers, blindly. […]

JAK2V617F HUVECs [2] = test: In vitro static adhesion on endothelial cells; format: cell-based, human; conditions: HUVECs pretreated 24 hours with hydroxyurea 100 μM
Method: Cell culture/Lentivirus transduction. Human umbilical venous endothelial cells (HUVECs, Lonza, Basel, Swiss) were cultured in EGM-2 media (Lonza, CC-3156) supplemented with EGM-2 Single Quots (Lonza, CC-4176). Cells were transduced with GFP lentivirus encoding human JAK2V617F or JAK2WT by adding lentiviral supernatant to the medium and incubating overnight at 37° C. An empty lentivirus encoding only for GFP was used as a negative control. Lentivirus were transduced at a multiplicity of infection of 20, allowing more than 95% of GFP positive cells. Transgene stability was verified after each passage and remaining stable throughout the passages. HUVECs were used for experiments between passage 5 and passage 7.
In vitro static adhesion on endothelial cells. Blood samples were performed from well healthy voluntary witnesses. Blood was diluted with PBS (1/2 dilution) and deposed on lymphocyte separation medium (Pancoll, Dominique Dutscher, Brumath, France) before centrifugation at 450 g during 20 minutes to obtain mononuclear cells (MNC). […] We visualized adherent cells using a fluorescent microscope (AxioObserver, Zeiss, Oberkochen, Germany) and analysed images by ZEN imaging software (Zeiss). Well surface was quantified in order to obtain the following ratio: number of adherent cells/mm2. […]

sickle cell mice = conditions: TNF-alpha treated sickle cell mice; cited from earlier work
[3] = test system: Pdgfb-iCreERT2;JAK2^V617F/WT mice; test: Intravital microscopy of mesenteric venules (leukocyte rolling and adhesion); format: in vivo; conditions: HU 200 mg/kg/day oral gavage 10 days, low dose TNF-alpha
Excerpt: as §1
Video analysis. Rolling leukocytes were quantitated by counting the number of rhodamin-marked cells passing a given plane perpendicular to the vessel axis in 30 seconds. Adherent leukocytes were quantitated by counting the number of rhodamin-marked cells motionless during 30 seconds. Vessel surface was quantitated to perform the following ratio: adherent cells/vessel surface (number of cells/cm2). […]

JAK2V617F HUVECs [4] = test: Quantification of VWF in HUVEC supernatant; format: cell-based, human; conditions: 24 hours with 100 μM hydroxyurea
Method: Quantification of VWF in HUVEC supernatant and in HUVECs. HUVEC cell were seeded in 12 wells plate (Costar). When they were confluent, they were washed with 500 μL of PBS (Gibco ThermoFisher Scientific) before adding 500 μL of medium not deprived. Experiments were performed in absence or in presence of TNF-alpha (10 ng/ml during 24 hours) (Merck Millipore). After 24 hours, supernatant was removed, centrifuged at 12000 g during 5 minutes and stored at −80° C. To quantify vWF in HUVECs, cells were washed with PBS before adding in wells 500 μL of PBS. Cells were destroyed in wells with scrapper. Liquid was removed and 5 freezing and thawing successions were performed. Finally, the intracellular lysates were centrifuged at 12000 g during 5 minutes and stored at −80° C. As previously published^45, vWF was quantified following this method: […] plate (Greiner, Flat Bottom) were coated with an anti-vWF antibody (DAKO, Les Ulis, France, A0082) diluted at 1/660 in a coating buffer overnight at 4° C. After washing and blocking, sample of HUVEC supernatant and intracellular lysate were put in wells. Standards were realized with a platelet poor plasma from a healthy donor. […] After 2 minutes of coloration, the reaction was blocked with a H2SO4 3M solution and reading was performed at 492 nm with OPTIMA plate reader. […]

P-selectin = target: T1, P-selectin (Homo sapiens, UniProt P16109); conditions: clinical trial, patients; cited from earlier work
T1 construct: host or cells: sickle cell disease patients (cited clinical trial)
T1 sequence (P16109 42-830): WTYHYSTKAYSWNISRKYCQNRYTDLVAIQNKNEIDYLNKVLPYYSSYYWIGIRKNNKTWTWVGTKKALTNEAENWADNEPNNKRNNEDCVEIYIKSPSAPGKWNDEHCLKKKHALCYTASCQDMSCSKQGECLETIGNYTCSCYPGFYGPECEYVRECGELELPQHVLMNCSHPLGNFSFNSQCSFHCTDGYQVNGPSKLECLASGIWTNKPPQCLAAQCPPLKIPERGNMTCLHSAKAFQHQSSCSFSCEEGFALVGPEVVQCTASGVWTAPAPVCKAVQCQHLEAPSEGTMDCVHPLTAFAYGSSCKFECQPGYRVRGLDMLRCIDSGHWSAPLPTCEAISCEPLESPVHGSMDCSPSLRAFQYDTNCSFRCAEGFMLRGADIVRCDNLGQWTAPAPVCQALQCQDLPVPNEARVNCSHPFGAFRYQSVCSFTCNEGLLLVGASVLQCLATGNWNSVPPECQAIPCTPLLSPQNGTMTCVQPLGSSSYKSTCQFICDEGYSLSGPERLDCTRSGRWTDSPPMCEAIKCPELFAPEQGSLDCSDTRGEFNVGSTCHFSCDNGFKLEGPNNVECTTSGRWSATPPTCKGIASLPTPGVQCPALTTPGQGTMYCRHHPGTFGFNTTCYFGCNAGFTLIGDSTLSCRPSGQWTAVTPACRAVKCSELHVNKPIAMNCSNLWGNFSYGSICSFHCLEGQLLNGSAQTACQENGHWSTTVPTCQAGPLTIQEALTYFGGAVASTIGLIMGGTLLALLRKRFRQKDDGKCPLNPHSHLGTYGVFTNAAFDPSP

In the case of `NC(=O)NO` [hydroxyurea], the “thrombus formation in lungs” value [1] is given as “significant inhibition”, the “neutrophil adhesion on JAK2V617F HUVECs” value (JAK2V617F HUVECs [2]) is given as “significant reduction” and the “leukocyte rolling in the microvasculature” value (sickle cell mice) is given as “reduction”. For the same molecule, the leukocyte adhesion [3] was “reduction”, the leukocyte rolling [3] was “reduction” and the “vWF concentrations in the supernatant of JAK2V617F HUVECs” value (JAK2V617F HUVECs [4]) was “decreased”.

B1: crizanlizumab: anti-P-selectin antibody, SEG101 also named crizanlizumab (antibody, chains of the INN, looked up, V domains shown)
VH: QVQLVQSGAEVKKPGASVKVSCKVSGYTFTSYDINWVRQAPGKGLEWMGWIYPGDGSIKYNEKFKGRVTMTVDKSTDTAYMELSSLRSEDTAVYYCARRGEYGNYEGAMDYWGQGTLVTVSS
VL: DIQMTQSPSSLSASVGDRVTITCKASQSVDYDGHSYMNWYQQKPGKAPKLLIYAASNLESGVPSRFSGSGSGTDFTLTISSLQPEDFATYYCQQSDENPLTFGGGTKVEIK
In the case of B1, the “pain crises in sickle cell disease” value (P-selectin) is listed as “efficiently prevented”.
